{"source": "patent EP0564801A1", "about": "“Analysis of host cell shut-off” (BOEHRINGER INGELHEIM INTERNATIONAL GmbH, priority 1992, dated 1993)", "key": {"HRV2 2A": {"target": "T1, HRV2 2A (Human rhinovirus 2, UniProt P04936)", "T1 construct": "wurden mit einer reifen, rekombinanten HRV2 2A durchgeführt; made in house", "T1 sequence (P04936 851-992)": "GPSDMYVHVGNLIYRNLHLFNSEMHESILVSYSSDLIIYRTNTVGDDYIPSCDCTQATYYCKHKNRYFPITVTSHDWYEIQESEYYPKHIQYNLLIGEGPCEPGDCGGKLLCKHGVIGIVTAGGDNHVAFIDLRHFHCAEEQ", "experiment": "Competition assay of peptide substrates against reference peptide P8-P8' (HPLC analysis of cleavage)", "type": "biochemical", "settings": "for Spaltbarkeit durch HRV2 2A (result in words): competition assay with P8-P8'", "text": "Die Substratspezifitätsstudien, wie auch alle anderen Studien in diesem Beispiel, wurden mit einer reifen, rekombinanten HRV2 2A durchgeführt. Mittels Kompetitionsstudien unter Verwendung eines 16-mer Wildtyp-Peptidsubstrats (P8-P8') als Referenzpeptid wurde der jeweilige (Vmax/Km)rel-Wert für das mutierte Peptidsubstrat ermittelt. Das Peptid P8-P8' ([…]* […] (SEQ ID NO. 23)) entspricht der nativen Spaltstelle von HRV2 2A im Polyprotein ([…] ist der C-terminale Teil von VP1 und […] der N-Terminus von HRV2 2A). Dieses Peptid wird von der rekombinanten HRV2 2A intermolekular korrekt zwischen Ala und Gly prozessiert (Km-Wert: (5,4±0,02) x 10⁻⁴ Mol/l; Sommergruber et al., loc cit). […] Die Kompetitionsreaktion wurde durch Zugabe von 1 µl einer reinen (ca. 95%) HRV2 2A Stammlösung (2mg/ml in Puffer A + 0,05% NaN₃) gestartet. 50 µl Proben wurden jeweils nach 30, 60, 90, 120 und 150 sek bzw. nach 2, 4, 8, 16 und 32 min entnommen, in ein ULTRAFREE-MC Röhrchen (10,000 NMWL; Fa. Millipore) mit jeweils 250 µl 0,5 M HClO₄ transferriert (Reaktionsstop), gemischt und auf Eis gestellt (mindestens 15 min). Anschließend wurde die Lösung 30 min bei 14K, 4°C in einer SIGMA Eppendorfzentrifuge zentrifugiert. Das Filtrat wurde direkt zur HPLC Analyse eingesetzt. Peptidsubstrate und deren Spaltprodukte wurden entweder auf einem Kurzgradienten (5,5 min; 5,4% B/min; Merck Supersphere C18 Säule, 4x50 mm) oder einem Langgradienten (34,5 min; 0,8% B/min; Bakerbond WP C18 Säule, 4,6x250mm) aufgetrennt. Die Messung der UV Absorption wurde bei 210 nm und 280 nm durchgeführt. Die Spaltprodukte wurden mittels Komigration von Referenzpepetiden und/oder durch Proteinsequenzierung (Hunkapiller und Hood (1983) Science 219, 650-659) identifiziert. Der prozentuelle Anteil der Spaltung für jeden Zeitpunkt wurde durch Vergleich der Flächen der C- und N-terminalen Produktpeaks mit dem des verbliebenen ungespaltenen Peptidsubstrats ermittelt. Zusätzlich wurden die Daten graphisch ausgewertet, um etwaige Abweichungen vom klassischen Kurvenverlauf zu erkennen (z.B. sigmoide Kurve, allosterische Effekte etc.). Bei keinem der in Abb. 23 angeführten mutierten Peptidsubstrate konnte solch ein Effekt beobachtet werden. Für jedes Substrat und dessen Spaltprodukte war die Gesamtfläche der Peaks unabhängig vom Maß der Spaltung (< 5%). Für zwei Peptidsubstrate 1 und 2 ergeben sich in einem Kompetitionsassay nach Pallai et al. (Pallai et al. (1989) J. Biol. Chem. 264, 9738-9741) die (Vmax/Km)rel-Werte: (Vmax/Km)1/(Vmax/Km)2 = log(1-F1)/log(1-F2) [formula] wobei F der Anteil des umgesetzten Substrats ist. In allen Kompetitionsstudien waren Substrat- und Produktpeaks entweder auf dem langen oder dem kurzen bzw. auf beiden Gradienten über HPLC-Analyse voneinander trennbar. […]"}, "host cell shut-off": {"system": "host cell shut-off", "experiment": "Inhibition of host cell shut-off (statement, test not described)", "settings": "statement only, no data given"}, "HRV2 2A Proteinase [1]": {"target": "T2, HRV2 2A Proteinase (Human rhinovirus 2, UniProt P04936)", "T2 construct": "allen 142 Aminosäuren der 2A Proteinase von HRV2 und 2 Stoppcodons; N-terminal leader: first 14 aa of T7 gene 10 protein + last 7 aa of HRV2 VP1 (removed by self-cleavage) (N, cleaved yes); made in house; host or cells: E. coli BL21(DE3)LysS, plasmid pET/2A; 30 % ammonium sulfate precipitate", "T2 sequence (P04936 851-992)": "as above", "experiment": "In vitro translation of capped pLink-2C RNA in rabbit reticulocyte lysate pretreated with 2A preparation, with inhibitor", "type": "biochemical", "settings": "2A Präparation treated with 0,5 mM Elastatinal, Figur 8B, Spur 8", "description": "In vitro Transkription dieser Plasmide nach Linearisierung mit BamHI mittels T7 RNA Polymerase wurde wie beschrieben (Duechler et al. (1989), loc. cit.) durchgeführt. Für die Synthese von RNA mit Cap-Struktur wird dem Transkriptionsansatz ⁷mGpppG und GTP zugesetzt. Zum Beispiel kann der von Duechler et al. (1989, loc. cit.) beschriebene Reaktionsansatz 1 mM 7MeGppG und 250 µm GTP enthalten. Am Ende der Reaktionszeit wurde die DNA durch Zugabe von DNase I (RNAse-frei, Boehringer Mannheim) verdaut, die Proteine durch Phenolextraktion entfernt, und die RNA nach Zugabe von einem Drittel Volumen 8 M Ammoniumacetat mit Ethanol gefällt. Nach nochmaliger Fällung mit Ethanol wurde die RNA anschließend in Wasser aufgenommen und ein Aliquot durch Agarosegelelektrophorese auf Qualität überprüft. Der Laufpuffer enthielt 1% SDS. Für die in vitro Translation wurde jeweils 1 µg dieser RNAs eingesetzt. Die Reaktion enthielt in 20 µl 90 mM KCl, 0.3 mM MgCl₂, 10 mM Kreatinphosphat, 2 µl ³⁵S-Trans-Label (ICN; 10 µCi/µl, 1000 Ci/mmol) und 11,5 µl Kaninchenreticulocytenlysat, das mit Micrococcal Nuclease (Sigma) behandelt worden war. Das Kaninchenreticulocytenlysat wurde nach der Methode von Jackson, R. und Hunt, T. (Meth. Enzymol. (1983) 96, 50 - 74) durch Behandlung mit Micrococcal Nuclease hergestellt. […]"}, "2A": {"target": "2A (Human rhinovirus 2, UniProt P04936)", "sequence (P04936 851-992)": "as above", "settings": "Sommergruber et al. (1992); read-out: IC50 für 2A; cited from earlier work"}, "HRV2 2A Proteinase [2]": {"target": "T2, HRV2 2A Proteinase", "experiment": "In vitro translation of globin RNA in HeLa cell extract pretreated with 2A proteinase, with inhibitor", "type": "biochemical", "settings": "2A Proteinase preincubated with 0,5 mM Elastatinal, Fig. 16C, Spur 4", "description": "Zur Herstellung eines HeLa-Zellextraktes wurde eine 1 l HeLa-Suspensionkultur (z.B. HeLa S3 (03-157, FLOWLABS) oder HeLa Ohio (03-147, FLOWLABS)), (ca. 4 x 10⁵ Zellen/ml) in halb-logarithmischer Phase abzentrifugiert (20 min, 1200 rpm), mit isotonischem Puffer gewaschen, durch mehrmaliges \"Douncen\" (40- bis 50-mal) aufgebrochen und die Zelltrümmer durch Zentrifugation (3 min, 3000 rpm) entfernt. Der Überstand wurde erneut zentrifugiert (20 min, 10000 rpm), das Pellet verworfen und der neue Überstand nochmals zentrifugiert (20 min, 13000 rpm). Der erhaltene Überstand wurde dann bei 4°C gegen Dialysepuffer (zweimal je 400 ml) dialysiert und nochmals 20 Minuten bei 13000 rpm zentrifugiert (20 min, 13000 rpm). Der Überstand (S 20-Extrakt) wurde portioniert und in flüssigem Stickstoff gelagert. isotonischer Puffer: 10 mM Hepes, pH 7,9, 140 mM KCl, 1,5 mM MgCl₂, 1 mM EDTA, 0,5 mM PMSF. Dialysepuffer: 0,1 M KCl, 20 % Glycerin, 20 mM Hepes, pH 7,9, 0,2 mM EDTA, 0,5 mM DTT, 0,5 mM PMSF.\n1 ml Portionen des S 20-Extraktes wurden dann mit Micrococcal Nuclease (Boehringer Mannheim; Nr. 107921) behandelt, um die endogene RNA abzubauen: Zunächst wurde der Extrakt zentrifugiert (15 min, 4°C, 13000 rpm) und das Pellet verworfen. Zum Überstand (1 ml) wurden zugegeben: 1,2 µl 1 M CaCl₂ 1,5 µl 1 M MgOAc 16,0 µl Micrococcal Nuclease (15 U/µl). […]"}}}
{"compound": "p220-3: 16-mer Oligopeptid, Position im p220-Molekül 737-752 (SEQ ID NO. 124) (SSKRTAADKDRGEEDA; UniProt Q04637 737-752, looked up, fragment)", "values": [{"measurement": "Competitive inhibition of HRV2 2A", "setting": "HRV2 2A", "value": "wirken als kompetitive Inhibitoren"}, {"measurement": "Spaltbarkeit durch HRV2 2A (result in words)", "setting": "HRV2 2A", "value": "von HRV2 2A prozessiert werden können"}, {"measurement": "Inhibition of host cell shut-off", "setting": "host cell shut-off", "value": "in der Lage, den \"host cell shut-off\" zu inhibieren"}]}
{"compound": "CC(C)C[C@H](NC(=O)N[C@H](C(=O)N[C@@H](CCC(N)=O)C(=O)N[C@@H](C)C=O)[C@@H]1CCNC(=N)N1)C(=O)O", "note": "[Elastatinal]", "values": [{"measurement": "Effect on 2A-induced change of translation pattern", "setting": "HRV2 2A Proteinase [1]", "value": "die Inhibition von 2A verhindert die Änderung der Translationseigenschaften"}, {"measurement": "IC50", "setting": "2A", "value": 50, "unit": "µM"}, {"measurement": "Effect on 2A action on translation of Globin RNA", "setting": "HRV2 2A Proteinase [2]", "value": "die 2A-Wirkung auf die Translation wird inhibiert"}]}
{"compound": "p220-4: 16-mer Oligopeptid, Position im p220-Molekül 476-491 (SEQ ID NO. 125) (SEKGGEELLPPESTPI; UniProt Q04637 476-491, looked up, fragment)", "values": [{"measurement": "Competitive inhibition of HRV2 2A", "setting": "HRV2 2A", "value": "wirken als kompetitive Inhibitoren"}, {"measurement": "Spaltbarkeit durch HRV2 2A (result in words)", "setting": "HRV2 2A", "value": "von HRV2 2A prozessiert werden können"}, {"measurement": "Inhibition of host cell shut-off", "setting": "host cell shut-off", "value": "in der Lage, den \"host cell shut-off\" zu inhibieren"}]}
